Reference: patent publication US20260053767A1, “Hepatoprotective Compositions And Methods” (Jemyll, Ltd., priority 2022, published 2026)

What was measured:
Wistar rats [1] = assay: Glucose challenge test and body weight in rats on high fat/high cholesterol diet, water with DDA at 1% of caloric intake; format: in vivo
Excerpt: Animal Studies. All in vivo studies used Wistar rats that were kept for 9 weeks on a high fat/high cholesterol diet. The animals were then separated into two groups, a control group that continued the high fat/high cholesterol diet with regular water, whereas the treatment group continued the high fat/high cholesterol diet with water containing DDA (dodecanedioic acid) in an amount of 1% of the caloric intake. After all animals were separated in the respective test groups, body weights were recorded, and a glucose challenge test administered. […] Such effect is particularly unexpected as the quantity of DDA in the food was well below any quantity that was reasonably expected.

SIRT1 = SIRT1 levels in liver cells; format: cell-based; conditions: AML-12 liver cells, 6 hours; p=0.127
Excerpt: (§1) To that end, the inventors used endothelial cells (EOMA cells) and liver cells (AML-12 cells) in vitro and quantified various markers in response to exposure of the cells to environmental challenge in the presence and absence of DDA at low concentrations. Unless indicated otherwise, the DDA concentration in the in vitro experiments was 5 mcg per microliter. More specifically, the inventors measured p-H2AX protein levels as a marker for DNA damage, PGC-1α protein levels as a marker for mitochondrial biogenesis, NAMPT enzyme levels as a marker for potential for NAD+ production, and total antioxidant capacity as a marker of cellular health. In addition, the inventors also measured global SIRT activity as a gauge of activity for all SIRT enzymes, and in particular SIRT1 enzyme levels as markers for autophagy and various beneficial processes associated with a caloric restricted diet, and SIRT3 levels as markers for mitochondrial function and longevity.
In still further experiments, the inventors also investigated whether or not DDDA could have stimulatory effects on selected SIRT proteins. More specifically, the inventors tested the effects of DDDA on SIRT3 and SIRT1, and exemplary results are shown in FIG. 9 and FIG. 10, respectively. […] N=5-6 plates per treatment. […] Beyond this trend, however, no other observations were evident. N=5-6 plates per treatment.

SIRT3 = SIRT3 in endothelial cells; format: cell-based; conditions: EOMA endothelial cells
Excerpt: as §1
In yet a further series of experiments, the inventors also sought to confirm whether or not DDDA would have a modulatory effect in endothelial cells using the same markers and experimental conditions as noted above.
N=5-6 plates per treatment.

Wistar rats [2] = assay: Study 1 (prevention): liver histology (H&E, Oil Red O, Sirius Red); format: in vivo; conditions: Study 1, 4 weeks, 1% (w/vol) in drinking water
Description: (§2) Study design: All animal procedures were approved by the Catholic University of Rome Institutional Animal Care Committee. The design of the studies is summarized in FIG. 18, Panels A and B. • Study 1: Twenty adult Wistar rats, aged 8-10 weeks, were included in the study. The rats were housed in individual cages at 22° C. with 12-h light cycles and had ad libitum access to food and water. Rats were fed a high-fat high-cholesterol diet (44% Carbohydrate, 14% Protein, 42% fat+0.2% Cholesterol) (Mucedola, Milan, IT) for four weeks in the presence or absence of 1% Dodecanedioic acid, sodium salt (w/vol) dissolved in the water (FIG. 18, Panel A). Body weight and food/water intake were monitored weekly. • Study 2: Twenty adult Wistar rats, aged 8-10 weeks, were included in the study. The rats were housed in individual cages at 22° C. with 12-h light cycles and had ad libitum access to food and water. Rats were fed a high-fat high-cholesterol diet (44% Carbohydrate, 14% Protein, 42% fat+0.2% Cholesterol) (Mucedola, Milan, IT). After nine weeks of diet, rats were randomly assigned to one of the following groups: Four weeks of high-fat high-cholesterol diet or four weeks of high-fat high-cholesterol diet and 1% Dodecanedioic acid, sodium salt (w/v) dissolved in the water FIG. 18, Panel B). Body weight and food/water intake were monitored weekly.
(§3) Histology: The day of the sacrifice fresh portions of liver were cut, embedded in cryo-embedding media (OCT) and snap frozen in liquid nitrogen. Biopsies were cut using a cryostat (5 μm) and slides stored a −20° C. until analyses.
(§4) Hematoxylin and Eosin staining was performed to assess hepatic steatosis. Slides were fixed 10 minutes with 95% ethanol, stained with hematoxylin for 1 minute, washed with distilled water, stained with eosin for 30 seconds and cleared in two changes of pure ethanol and two changes of xylene.
(§5) Oil Red O was performed to assess intracellular lipid accumulation. Slides were fixed overnight with 4% formalin, stained with Oil Red O solution for 1 hour. Counterstain was performed with Hematoxylin solution.
(§6) Sirius Red was used to identify hepatic fibrosis. Slides were fixed 10 minutes with 4% formalin, stained in Direct red 80 for 1 hour, washed in acidified water and dehydrate in 3 changes of absolute ethanol. After brief clearing in xylene, the slides were mounted in a resinous medium. Images were taken with an optical microscope (Leica DM2000, Wetzlar, DE). […]
(§7) Panels A and B. • Study 1: Twenty adult Wistar rats, aged 8-10 weeks, were included in the study. […] Body weight and food/water intake were monitored weekly. • Study 2: Twenty adult Wistar rats, aged 8-10 weeks, were included in the study. […] Body weight and food/water intake were monitored weekly. […]

Wistar rats [3] = assay: Study 2 (reversal): liver histology (H&E, Oil Red O, Sirius Red); format: in vivo; conditions: Study 2: 9 weeks diet, then 4 weeks treatment
Description: as §2, §3, §4, §5, §6, §7

O=C(O)CCCCCCCCCCC(=O)O [DDDA, dodecanedioic acid]
AUC blood glucose in glucose challenge (Wistar rats [1]): significantly reduced
blood glucose spike in glucose challenge (Wistar rats [1]): significantly blunted
SIRT1 levels (SIRT1): trended upwards
SIRT3 (SIRT3; 24 hours): significant decline
SIRT3 (SIRT3; acute (6-hour data)): strong and acute increase
diet-induced NASH (histology, prevention) (Wistar rats [2]): prevents diet-induced NASH
fibrosis (Picro Sirius Red) (Wistar rats [2]): reduced
hepatic steatosis (Hematoxylin and Eosin) (Wistar rats [2]): reduced
neutral lipids deposition (Oil Red O) (Wistar rats [2]): reduced
diet-induced NASH (histology, reversal) (Wistar rats [3]): reverses diet-induced insulin NASH
fibrosis (Picro Sirius Red) (Wistar rats [3]): decreasing
hepatic steatosis (Hematoxylin and Eosin) (Wistar rats [3]): decreasing
neutral lipids (Oil Red O) (Wistar rats [3]): decreasing
